Measurements taken from patent US10413555B2, “Treatment of skin atrophy with a combination of triiodothyroacetic acid (TRIAC) and dehydroepiandrosterone (DHEA)” (TROPHEA DEVELOPMENT AB, priority 2014, dated 2019).
Like-named read-outs stand apart in the source and are kept apart here.

Legend:
[1] = topical corticosteroid, Group III; cited from earlier work
elderly people = details: oral route; cited from earlier work
Procollagen I (PINP) = assay: PINP in suction blister fluid from skin pretreated with betamethasone valerate, then treated with test formulations; assay type: in vivo, human; details: suction blister fluid after 14 days treatment
Description: Six healthy male volunteers aged 40-65 years. Criteria for exclusion are: treatment with systemic or topical glucocorticoids, ongoing serious infections, immunosuppression.
TRIAC and DHEA were obtained from Sigma. They were mixed with Essex cream (Merck) to obtain 4 different study formulations: • A. 0.03% TRIAC in Essex cream • B. 0.03% TRIAC and 2% DHEA in Essex cream • C. Essex cream alone. • D. 2% DHEA in Essex cream
A proof-of-concept, single blinded, open prospective study comparing, TRIAC, DHEA and the combination of the two as compared with non-active treatment on short-term glucocorticoid-induced skin atrophy.
The test area was normal looking abdominal skin in 6 male volunteers. Four different skin areas of 10×10 cm were marked with a permanent marker pen.
All areas were pretreated twice daily with betametasone valerate (Betnovate, GSK) 0.5 gr twice daily for 21 days. Then each test area was treated, with 0.5 gr twice daily of one of the test formulations, for 14 days.
Suction blisters were induced with a disposable device (Dermovac, Ventipress, Lappeeranta, Finland) placed on the test areas and connected to a vacuum pump with a vacuum of approximately 60 mm Hg. Each device produces five suction blisters within approximately one hour. The resulting fluid was collected, using a syringe, and then combined and frozen at −70° C. […]

post-menopausal women = details: DHEA 1% formulation, topical, facial and hand skin, 4 months, versus vehicle; cited from earlier work
rats [2] = details: rat, in vivo, 2000 mg/kg; cited from earlier work
procollagen I and III = details: cited from earlier work
Ames' test = assay type: cell-based
Description: (§1) The genotoxic potential of TRIAC has been investigated in the Ames' test and in in vitro chromosome aberration assay in cultured human peripheral lymphocytes.

rats [3] = details: cited from earlier work
metabolic effects = details: cited from earlier work
[4] = test system: patients with skin atrophy on the dorsum of their hands; details: cited from earlier work
thyroid hormone levels = details: cited from earlier work
mice = details: cited from earlier work
psoriasis = details: TRIAC 0.1% ointment; cited from earlier work
[5] = test system: cultured human peripheral lymphocytes; assay: In vitro chromosome aberration assay; assay type: cell-based
Description: as §1

Structure (SMILES): CCCCC(=O)O[C@]1(C(=O)CO)[C@@H](C)C[C@H]2[C@@H]3CCC4=CC(=O)C=C[C@]4(C)[C@@]3(F)[C@@H](O)C[C@@]21C [Betamethasone valerate]
- potency relative to hydrocortisone [1]: 50-100 times

Structure (SMILES): C[C@]12CC[C@H](O)CC1=CC[C@@H]1[C@@H]2CC[C@]2(C)C(=O)CC[C@@H]12 [DHEA, dehydroepiandrosterone]
- effect on skin conditions (elderly people): positive effect
- PINP concentration, comparison between treatments (Procollagen I (PINP)): only slightly better than treatment with placebo
- effect on skin aging features (post-menopausal women): improved skin brightness and counteract papery appearance of the skin and epidermal atrophy

Structure (SMILES): O=C(O)Cc1cc(I)c(Oc2ccc(O)c(I)c2)c(I)c1 [TRIAC, triiodothyroacetic acid]
- general toxicity and local irritation (rats [2]): neither any clinical signs of general toxicity nor any local irritation
- procollagen I and III compared to placebo (procollagen I and III; TRIAC 0.03% and 0.1% cream, both groups, 7 days after start of treatment, pre-treatment with topical betamethasone 17-valerate): statistically significant increase
- PINP synthesis compared to placebo (procollagen I and III; TRIAC 0.03% cream, healthy volunteers, skin pretreated with betamethasone valerate): significantly more effective
- genotoxic potential (Ames' test): no genotoxic potential
- lowest lethal dose (rats [3]; rat, in vivo, ip): 100 mg/kg
- LD50 (rats [3]; single dose, intraperitoneal, female rats): 295 mg/kg
- LD50 (rats [3]; single dose, intraperitoneal, male rats): 143 mg/kg
- no observed effect level (NOEL) (rats [3]; single dose, intraperitoneal, suspended in 0.8% hydroxyl propyl methylcellulose gel, rats): 46.4 mg/kg
- dose necessary to obtain similar metabolic effects, relative to T3 (metabolic effects; human, in vivo): greater than 15 times
- dose necessary to obtain similar metabolic effects, relative to T4 (metabolic effects; human, in vivo): > 10 times
- tachycardia compared with T4 or T3 (metabolic effects; human, in vivo): does not evoke tachycardia as effectively as T4 or T3
- tolerability (metabolic effects; oral administration, daily doses of 3.4 mg, up to 3 weeks): well tolerated
- skin thickness in epidermis and dermis ([4]; TRIAC 0.1% cream, after 8 weeks of treatment): significantly higher
- effect on glucocorticoid-induced skin atrophy ([4]; topical, patients treated with potent topical corticosteroids for hand eczema): appears to reverse glucocorticoid-induced skin atrophy
- effects on thyroid hormone levels (thyroid hormone levels; all 3 clinical studies, after 8 weeks treatment): no significant effects
- other blood analysis (thyroid hormone levels; clinical studies (15-16)): normal levels
- skin thickness in mice pretreated with betamethasone valerate (mice; TRIAC alone, 0.03%): could restore skin thickness
- effect on skin atrophy induced by potent topical glucocorticoids (mice; topical administration, mice): prevents skin atrophy
- skin thickness of normal skin (mice; topical, mice): increase skin thickness
- side effects (mice; topical, compared with vitamin A and D derivatives): no side effects were seen
- effect on psoriasis in comparison with placebo (psoriasis): no statistically significant effects
- safety of topical treatment (psoriasis): safe
- genotoxic potential [5]: no genotoxic potential
